Measured values published in PubChem BioAssay AID330 (DTP/NCI, 2004).
“And” between values parts separate entries of the source, which are not always exact repeats. Identical values can stand only once. Toxic doses and inconclusive results are not listed.

Test system: P388 leukemia ip, CD2F1 mice, survival T/C
Test: NCI In Vivo Anticancer Drug Screen. Data for tumor model P388 Leukemia (intraperitoneal) in CD2F1 (CDF1) mice
Conditions: endpoint: median survival time, higher = longer survival
Method in brief: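 Mice carrying the transplanted tumor received test compound or vehicle. Survival was recorded in each group, and the value is the treated-group measurement divided by that of the vehicle-treated control group.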

[1] = dose: 50.0 mg/kg/injection, schedule: Q01DX005 (ip), vehicle: saline with Tween-80
[2] = dose: 100.0 mg/kg/injection, schedule: Q01DX005 (ip), vehicle: saline with Tween-80
[3] = dose: 12.5 mg/kg/injection, schedule: Q01DX005 (ip), vehicle: Klucel (hydroxypropylcellulose) (HPC)
[4] = dose: 50.0 mg/kg/injection, schedule: Q01DX005 (ip), vehicle: Klucel (hydroxypropylcellulose) (HPC)
[5] = dose: 100.0 mg/kg/injection, schedule: Q01DX005 (ip), vehicle: Klucel (hydroxypropylcellulose) (HPC)
[6] = dose: 200.0 mg/kg/injection, schedule: Q01DX005 (ip), vehicle: Klucel (hydroxypropylcellulose) (HPC)

In the case of `O=C(O)c1cnc2cc(F)ccc2c1Nc1ccc2c(c1)OCO2`, the T/C (dose: 60.0 mg/kg/injection, schedule: Q01DX005 (ip), vehicle: Klucel + Tween-80) is reported as 97 % of control, the T/C (dose: 120.0 mg/kg/injection, schedule: Q01DX005 (ip), vehicle: Klucel + Tween-80) is reported as 94 % of control and the T/C (dose: 240.0 mg/kg/injection, schedule: Q01DX005 (ip), vehicle: Klucel + Tween-80) is reported as 89 % of control.

With `COc1ccc(C2=Nn3c(nc(N)nc3=N)SC2)cc1` the T/C (dose: 25.0 mg/kg/injection, schedule: Q01DX005 (ip), vehicle: saline with Tween-80) was 113 % of control, the T/C [1] was 100 % of control and the T/C [2] was 96 % of control.

In the case of `C=C1C(=O)O[C@H]2/C=C(/C)C3=CC(=O)[C@@](C)(C[C@@H](OC(=O)/C(C)=C\C)C12)O3` (stereo partly specified), the T/C (dose: 1.56 mg/kg/injection, schedule: Q01DX005 (ip), vehicle: Klucel (hydroxypropylcellulose) (HPC)) is reported as 102 % of control, the T/C (dose: 3.12 mg/kg/injection, schedule: Q01DX005 (ip), vehicle: Klucel (hydroxypropylcellulose) (HPC)) is reported as 105 % of control and the T/C (dose: 6.25 mg/kg/injection, schedule: Q01DX005 (ip), vehicle: Klucel (hydroxypropylcellulose) (HPC)) is reported as 105 % of control. For the same molecule, the T/C [3] was 89 % of control and 96 % of control.

For `N#C/C(C(=N)c1ccccc1)=C1\SS/C(=C(\C#N)C(=N)c2ccccc2)S1`, the T/C (dose: 1.56 mg/kg/injection, schedule: Q01DX009 (ip), vehicle: saline with Tween-80) was 99 % of control and 90 % of control, the T/C (dose: 3.13 mg/kg/injection, schedule: Q01DX009 (ip), vehicle: saline with Tween-80) was 99 % of control and 103 % of control and the T/C (dose: 6.25 mg/kg/injection, schedule: Q01DX009 (ip), vehicle: saline with Tween-80) was 104 % of control and 86 % of control and 90 % of control. The T/C (dose: 12.5 mg/kg/injection, schedule: Q01DX009 (ip), vehicle: saline with Tween-80) was 86 % of control and 97 % of control, the T/C (dose: 25.0 mg/kg/injection, schedule: Q01DX009 (ip), vehicle: saline with Tween-80) was 86 % of control and the T/C (dose: 50.0 mg/kg/injection, schedule: Q01DX009 (ip), vehicle: saline with Tween-80) was 105 % of control. For the same molecule, the T/C (dose: 100.0 mg/kg/injection, schedule: Q01DX009 (ip), vehicle: saline with Tween-80) was 107 % of control and the T/C (dose: 200.0 mg/kg/injection, schedule: Q01DX009 (ip), vehicle: saline with Tween-80) was 105 % of control.

With `Clc1ccc(Cl)c(NNc2cc(Cl)ccc2Cl)c1` the T/C (dose: 25.0 mg/kg/injection, schedule: Q01DX009 (ip), vehicle: Klucel (hydroxypropylcellulose) (HPC)) was 96 % of control, the T/C (dose: 50.0 mg/kg/injection, schedule: Q01DX009 (ip), vehicle: Klucel (hydroxypropylcellulose) (HPC)) was 91 % of control and the T/C (dose: 100.0 mg/kg/injection, schedule: Q01DX009 (ip), vehicle: Klucel (hydroxypropylcellulose) (HPC)) was 87 % of control. For the same molecule, the T/C (dose: 200.0 mg/kg/injection, schedule: Q01DX009 (ip), vehicle: Klucel (hydroxypropylcellulose) (HPC)) was 102 % of control.

With `CCCCCNc1ncnc2c(C)[nH]nc12` the T/C [3] was 105 % of control, the T/C (dose: 25.0 mg/kg/injection, schedule: Q01DX005 (ip), vehicle: Klucel (hydroxypropylcellulose) (HPC)) was 98 % of control and the T/C [4] was 91 % of control. For the same molecule, the T/C [5] was 90 % of control and the T/C [6] was 90 % of control.

For `O=c1ccnc(Nc2ccc[nH]c2=S)[nH]1`, the T/C [4] was 100 % of control, the T/C (dose: 60.0 mg/kg/injection, schedule: Q01DX005 (ip), vehicle: saline with Tween-80) was 105 % of control and the T/C [5] was 99 % of control. For the same molecule, the T/C (dose: 120.0 mg/kg/injection, schedule: Q01DX005 (ip), vehicle: saline with Tween-80) was 105 % of control, the T/C [6] was 93 % of control and the T/C (dose: 240.0 mg/kg/injection, schedule: Q01DX005 (ip), vehicle: saline with Tween-80) was 100 % of control.

For `C[N+](C)(C)N`, the T/C (dose: 25.0 mg/kg/injection, schedule: Q01DX009 (ip), vehicle: saline) was 102 % of control, the T/C (dose: 50.0 mg/kg/injection, schedule: Q01DX009 (ip), vehicle: saline) was 100 % of control and the T/C (dose: 100.0 mg/kg/injection, schedule: Q01DX009 (ip), vehicle: saline) was 100 % of control.

With `COC(=O)CCC(NC(=O)C(CCCCN)N(C(=O)OCc1ccccc1)C(=O)OCc1ccccc1)C(=O)OC` (stereo unspecified) the T/C [1] was 101 % of control, the T/C [2] was 101 % of control and the T/C (dose: 200.0 mg/kg/injection, schedule: Q01DX005 (ip), vehicle: saline with Tween-80) was 98 % of control.

For `COc1cccc2c1C(=O)c1c(O)c3c(c(O)c1C2=O)CC(O)(C(C)=O)CC3OC1CC(N)C(O)C(C)O1` (stereo unspecified), the T/C (dose: 0.63 mg/kg/injection, schedule: Q01DX009 (ip), vehicle: water) was 150 % of control and 163 % of control, the T/C (dose: 1.25 mg/kg/injection, schedule: Q01DX009 (ip), vehicle: water) was 158 % of control [middle of 7 runs] and the T/C (dose: 1.5 mg/kg/injection, schedule: Q01DX009 (ip), vehicle: water) was 103 % of control. The T/C (dose: 2.5 mg/kg/injection, schedule: Q01DX009 (ip), vehicle: water) was 160 % of control [middle of 16 runs], the T/C (dose: 2.9 mg/kg/injection, schedule: Q01DX009 (ip), vehicle: saline) was 102 % of control and the T/C (dose: 3.0 mg/kg/injection, schedule: Q01DX009 (ip), vehicle: water) was 110 % of control. For the same molecule, the T/C (dose: 3.13 mg/kg/injection, schedule: Q01DX009 (ip), vehicle: water) was 155 % of control, the T/C (dose: 5.0 mg/kg/injection, schedule: Q01DX009 (ip), vehicle: water) was 167 % of control [middle of 17 runs] and the T/C (dose: 6.0 mg/kg/injection, schedule: Q01DX009 (ip), vehicle: water) was 110 % of control. The T/C (dose: 6.25 mg/kg/injection, schedule: Q01DX009 (ip), vehicle: water) was 171 % of control, the T/C (dose: 8.0 mg/kg/injection, schedule: Q04DX003 (ip), vehicle: water) was 114 % of control and the T/C (dose: 10.0 mg/kg/injection, schedule: Q01DX009 (ip), vehicle: water) was 178 % of control [middle of 14 runs]. The T/C (dose: 11.0 mg/kg/injection, schedule: Q04DX003 (ip), vehicle: water) was 103 % of control and 109 % of control, the T/C (dose: 12.0 mg/kg/injection, schedule: Q01DX009 (ip), vehicle: water) was 116 % of control and the T/C (dose: 12.5 mg/kg/injection, schedule: Q01DX009 (ip), vehicle: water) was 174 % of control. For the same molecule, the T/C (dose: 15.0 mg/kg/injection, schedule: Q04DX003 (ip), vehicle: water) was 121 % of control, the T/C (dose: 16.0 mg/kg/injection, schedule: Q04DX003 (ip), vehicle: water) was 110 % of control and 122 % of control and the T/C (dose: 20.0 mg/kg/injection, schedule: Q01DX009 (ip), vehicle: other) was 155 % of control. The T/C (dose: 21.9 mg/kg/injection, schedule: Q04DX003 (ip), vehicle: water) was 97 % of control and 118 % of control, the T/C (dose: 23.4 mg/kg/injection, schedule: Q01DX009 (ip), vehicle: saline) was 188 % of control and the T/C (dose: 24.0 mg/kg/injection, schedule: Q01DX009 (ip), vehicle: water) was 108 % of control. For the same molecule, the T/C (dose: 25.0 mg/kg/injection, schedule: Q01DX009 (ip), vehicle: water) was 197 % of control, the T/C (dose: 40.0 mg/kg/injection, schedule: Q01DX009 (ip), vehicle: water) was 104 % of control and the T/C (dose: 43.8 mg/kg/injection, schedule: Q04DX003 (ip), vehicle: water) was 106 % of control. The T/C (dose: 64.0 mg/kg/injection, schedule: Q04DX003 (ip), vehicle: water) was 110 % of control, the T/C (dose: 87.5 mg/kg/injection, schedule: Q04DX003 (ip), vehicle: water) was 157 % of control and the T/C (dose: 88.0 mg/kg/injection, schedule: Q04DX003 (ip), vehicle: water) was 182 % of control. For the same molecule, the T/C (dose: 120.0 mg/kg/injection, schedule: Q04DX003 (ip), vehicle: water) was 160 % of control, the T/C (dose: 128.0 mg/kg/injection, schedule: Q04DX003 (ip), vehicle: water) was 168 % of control and 172 % of control and the T/C (dose: 175.0 mg/kg/injection, schedule: Q04DX003 (ip), vehicle: water) was 182 % of control. The T/C (dose: 240.0 mg/kg/injection, schedule: Q04DX003 (ip), vehicle: water) was 101 % of control, the T/C (dose: 256.0 mg/kg/injection, schedule: Q04DX003 (ip), vehicle: water) was 177 % of control and the T/C (dose: 350.0 mg/kg/injection, schedule: Q04DX003 (ip), vehicle: water) was 97 % of control.

In the case of `CCOCNC=O`, the T/C (dose: 125.0 mg/kg/injection, schedule: Q01DX005 (ip), vehicle: water) is reported as 107 % of control, the T/C (dose: 250.0 mg/kg/injection, schedule: Q01DX005 (ip), vehicle: water) is reported as 100 % of control and the T/C (dose: 500.0 mg/kg/injection, schedule: Q01DX005 (ip), vehicle: water) is reported as 107 % of control. The T/C (dose: 1000.0 mg/kg/injection, schedule: Q01DX005 (ip), vehicle: water) was 112 % of control.
